Data set [1] concerns MDR proteins. As to the kind of experiment: Intracellular accumulation of calcein in MDCK-MDR1 cells in the presence of therapeutic agents and trypan blue. Conditions: for Area Under the Curve ± SEM (intracellular calcein accumulation): monitored for 300 minutes; for interaction with MDR proteins (area under the curve of calcein vs control): summary statement.
Procedure: Intracellular accumulation was monitored for 300 minutes in a 96-well format and the area under curve for each treatment was determined. The larger the area under the curve, the greater the intracellular accumulation of calcein and, by extension, the greater the influence of the therapeutic agent on MDR protein activity.
In data set [2] the target is T1, MDR1 (Homo sapiens, UniProt P08183). To be noted: isolated membranes; Homolya et al. (1993); read-out: Kd as activator of MDR1; cited from earlier work.
T1 sequence (P08183 whole entry, species assumed): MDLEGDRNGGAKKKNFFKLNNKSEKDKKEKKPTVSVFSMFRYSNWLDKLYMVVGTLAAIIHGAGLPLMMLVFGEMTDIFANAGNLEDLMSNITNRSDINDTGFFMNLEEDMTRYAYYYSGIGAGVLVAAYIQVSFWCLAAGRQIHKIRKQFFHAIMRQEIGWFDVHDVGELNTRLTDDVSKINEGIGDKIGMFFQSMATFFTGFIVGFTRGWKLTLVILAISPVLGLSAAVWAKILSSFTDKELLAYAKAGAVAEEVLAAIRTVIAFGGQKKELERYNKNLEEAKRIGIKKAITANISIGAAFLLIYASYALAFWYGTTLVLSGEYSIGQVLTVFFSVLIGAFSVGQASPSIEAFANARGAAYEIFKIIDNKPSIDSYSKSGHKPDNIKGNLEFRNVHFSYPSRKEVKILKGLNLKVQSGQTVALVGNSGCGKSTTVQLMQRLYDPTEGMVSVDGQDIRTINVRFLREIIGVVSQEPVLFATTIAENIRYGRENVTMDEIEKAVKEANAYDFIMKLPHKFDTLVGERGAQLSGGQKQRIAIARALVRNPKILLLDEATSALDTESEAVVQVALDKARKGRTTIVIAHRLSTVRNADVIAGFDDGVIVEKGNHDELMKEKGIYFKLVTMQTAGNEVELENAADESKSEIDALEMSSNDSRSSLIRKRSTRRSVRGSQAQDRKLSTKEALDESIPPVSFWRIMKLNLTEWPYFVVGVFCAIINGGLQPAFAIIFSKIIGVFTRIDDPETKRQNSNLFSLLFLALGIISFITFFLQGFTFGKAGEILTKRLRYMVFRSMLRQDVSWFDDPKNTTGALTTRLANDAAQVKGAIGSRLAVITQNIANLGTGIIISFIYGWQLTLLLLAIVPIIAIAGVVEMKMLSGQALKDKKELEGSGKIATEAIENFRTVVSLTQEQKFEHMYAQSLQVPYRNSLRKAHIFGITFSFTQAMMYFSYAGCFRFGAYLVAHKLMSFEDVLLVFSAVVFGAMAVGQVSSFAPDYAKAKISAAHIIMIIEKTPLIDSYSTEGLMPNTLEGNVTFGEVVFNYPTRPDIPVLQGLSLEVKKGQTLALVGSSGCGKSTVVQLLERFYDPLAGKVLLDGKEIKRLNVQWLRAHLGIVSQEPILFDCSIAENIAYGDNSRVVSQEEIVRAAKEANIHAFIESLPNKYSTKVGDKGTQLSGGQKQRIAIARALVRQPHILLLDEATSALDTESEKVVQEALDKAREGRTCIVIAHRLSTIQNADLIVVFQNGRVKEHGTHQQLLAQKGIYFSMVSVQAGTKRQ
In data set [3] the test system is MDR proteins. As to the kind of experiment: Intracellular accumulation of fluorescent drug efflux probes in Caco2 cells with trypan blue. It counts as cell-based, human. Conditions: calcein-AM 1 μM, BCECF-AM 1 μM, rhodamine 123 3.2 μM, 0.04% or 0.1% trypan blue. The protocol:
(§1) FIGS. 1A-1C show intracellular accumulation of calcein-AM (1 μM) in Madin-Darby canine kidney cells transfected with human MDR1 gene (MDCK-MDR1; FIG. 1A); human, […], colon adenocarcinoma cells (Caco2; FIG. 1B); and bovine brain microvessel endothelial cells (BBMEC, FIG. 1C) exposed to MDR1 inhibitor GF120918, MRP inhibitor indomethacin, or GF120918 in combination with indomethacin. Trypan blue (0.04%) was used to quench extracellular fluorescence.
(§2) FIGS. 2A-2C show intracellular accumulation of BCECF-AM (1 μM) in MDCK-MDR1 (FIG. 2A), Caco2 (FIG. 2B), and BBMEC (FIG. 2C) cells exposed to MDR1 inhibitor GF120918, MRP inhibitor indomethacin, or GF120918 in combination with indomethacin. Trypan blue (0.04%) was used to quench extracellular fluorescence.
(§3) FIGS. 3A-3C show intracellular accumulation of rhodamine 123 (3.2 μM) in MDCK-MDR1 (FIG. 3A), Caco2 (FIG. 3B), and BBMEC (FIG. 3C) cells exposed to MDR1 inhibitor GF120918, MRP inhibitor indomethacin, or GF120918 in combination with indomethacin. Trypan blue (0.1%) was used to quench extracellular fluorescence. […]

The target of data set [4] is T1, MDR1.
Data set [5] concerns MDR proteins. As to the kind of experiment: Intracellular accumulation of fluorescent drug efflux probes in BBMEC cells with trypan blue. Conditions: calcein-AM 1 μM, BCECF-AM 1 μM, rhodamine 123 3.2 μM, 0.04% or 0.1% trypan blue. The data set is classed as cell-based, bovine. The protocol:
as §1, §2, §3

For data set [6], the system named is MDR proteins. As to the kind of experiment: Intracellular accumulation of fluorescent drug efflux probes in MDCK-MDR1 cells with trypan blue. The data set is classed as cell-based, human. Conditions: calcein-AM 1 μM, BCECF-AM 1 μM, rhodamine 123 3.2 μM, 0.04% or 0.1% trypan blue.

What is called pKd is the negative decadic logarithm of the Kd, by convention in mol/L.

pKd: −log10 of the molar value.

Take `Cc1nc2n(c(=O)c1CCN1CCC(c3noc4cc(F)ccc34)CC1)CCCC2` [Risperidone, risperidone]: the “Ratio to Control (area under the curve)” value in data set [1] (1 μM) is 1.53; in data set [1] (10 μM) it was 2.19; in data set [1] (100 μM) it was 6.64. Further, the “Area Under the Curve ± SEM (intracellular calcein accumulation)” value in data set [1] (1 μM) is on record as 3.92 ± 0.412; in data set [1] (10 μM) it was 5.62 ± 0.259; in data set [1] (100 μM), 17.02 ± 0.310. Also, the “interaction with MDR proteins (area under the curve of calcein vs control)” value in data set [1] is given as “strong interaction with MDR proteins”.

As for “calcein-acetoxy-methylester [Calcein-AM]”, the pKd in data set [2] is not below 6.00.

Take `COc1cc2c(cc1OC)CN(CCc1ccc(NC(=O)c3cccc4c(=O)c5cccc(OC)c5[nH]c34)cc1)CC2` [GF120918]: the “intracellular accumulation of calcein-AM, BCECF and rhodamine 123” value in data set [3], in data set [5] and in data set [6] was “increase in the intracellular accumulation” in each case. The “initial fluorescence (uptake of rhodamine 123 at a single time point)” value in data set [4] was “greater initial fluorescence”. Also, the “Ratio to Control (area under the curve)” value in data set [1] (3.2 μM) is reported as 8.81. Moreover, in data set [1] (3.2 μM), the “Area Under the Curve ± SEM (intracellular calcein accumulation)” value is 22.57 ± 0.729.

Turning to `O=c1[nH]cc(F)c(=O)[nH]1` [5-Fluorouracil, 5-fluorouracil], the “Ratio to Control (area under the curve)” value is on record as 1.20 in data set [1] (1 μM), 1.30 in data set [1] (10 μM) and 0.87 in data set [1] (100 μM). The “Area Under the Curve ± SEM (intracellular calcein accumulation)” value in data set [1] (1 μM) is reported as 3.07 ± 0.217; in data set [1] (10 μM), 3.33 ± 0.269; in data set [1] (100 μM) it was 2.24 ± 0.322.

For the molecule `CC(C)CN(C[C@@H](O)[C@H](Cc1ccccc1)NC(=O)O[C@H]1CCOC1)S(=O)(=O)c1ccc(N)cc1` [amprenavir], the “Area Under the Curve ± SEM (intracellular calcein accumulation)” value was 4.06 ± 0.518 in data set [1] (1 μM), 5.44 ± 0.357 in data set [1] (10 μM) and 16.25 ± 0.798 in data set [1] (100 μM). In data set [1], the “interaction with MDR proteins (area under the curve of calcein vs control)” value is “strong interaction with MDR proteins”.

As to `COc1ccc2c(c1)c(CC(=O)O)c(C)n2C(=O)c1ccc(Cl)cc1` [indomethacin], the “intracellular accumulation of calcein-AM, BCECF and rhodamine 123” value in data set [3], in data set [5] and in data set [6] was “increase in the intracellular accumulation” each time.

These data come from patent US7838256B2, “Assay and kit for drug efflux transporter activity” (Board of Regents of the University of Nebraska, priority 2007, dated 2010).
